As usually defined, the solubility is the dissolved amount per volume that the medium holds. A higher solubility goes with much dissolved substance.

Values after ≈ are worked out from the molar mass of the structure shown.

The source of these data is patent US20230113398A1, “INEXPENSIVE METAL-FREE ORGANIC REDOX FLOW BATTERY (ORBAT) FOR GRID-SCALE STORAGE” (UNIVERSITY OF SOUTHERN CALIFORNIA, priority 2013, published 2023).

Data set [1] in a line: Properties of some common quinones (literature data, Conant and Fieser). In kind it is physicochemical. An excerpt:
In a variation as set forth above, the flow battery utilizes a first quinone and a second quinone. Quinones are known to undergo fast electrochemical transformations which are necessary for sustaining high discharge and charge rates in a battery. The facility of electrochemical transformation is characterized by the kinetic parameter termed exchange current density. […] In general, useful quinones are highly soluble in water, chemically stable in strongly acidic/basic solutions, capable of high cell voltage of about 1 V, roundtrip efficiency >80%, and high discharge rate. By selecting a first quinone and a second quinone that are far apart in electrode potential, the cell voltage can be maximized to 1 V. Moreover, the electrode potentials can be modified favorably by substituent groups on the quinones as set forth below. Based on data provided in Table 1 and 2 (J.B. Conant and […]. Am. Chem.

The conditions of data set [2]: cited from earlier work.
A short description of data set [3]: Rotating disk electrode and cyclic voltammetry on glassy carbon, 1 mM compound in 1 M sulfuric acid. It counts as physicochemical. Here is the method:
Measurement of kinetic parameters and diffusion coefficients was conducted in a three-electrode cell consisting of a rotating glassy carbon disk working electrode, a platinum wire counter electrode, and a mercury/mercuric sulfate reference electrode (E° = +0.65 V). […] The solutions were de-aerated and kept under a blanket of argon gas throughout all the experiments. All measurements were conducted in the potentiodynamic mode (Versastat 300 potentiostat) at a scan rate of 5 mV s^-1 over a range of rotation rates (500 rpm to 3000 rpm). Impedance measurements were also made at each rotation rate. Cyclic voltammetry was conducted on a static glassy carbon electrode at a scan rate of 50 mV s^-1.
Where n is the number of electrons transferred, F, the Faraday constant, A, electrode area, Do, the diffusion coefficient, v, the kinematic viscosity of the solution and C*, the bulk concentration of the reactants. For n = 2, an active electrode area of 0.1925 cm^2, and a kinematic viscosity of the electrolyte of 0.01 cm^2 s^-1, we were able to evalulate the diffusion coefficient from the slope of the straight line plots in FIG. 11D.
To determine the kinetic parameters for the charge-transfer process, namely the rate constant and the apparent transfer coeffcient, the logarithm of the kinetic current (after correction for mass-transport losses) was plotted against the observed overpotentials greater than 100 mV, where the Tafel equation is applicable (Eq. 4 and FIG. 11E).
Where I is the current, Ilim is the limiting current, Iex is the exchange current density, Co and CR are the concentration of the oxidized and reduced species at the surface of the electrode, Co* and CR* are the bulk concentrations of the oxidized and reduced species, α is the transfer coefficient, n is the number of electrons transferred, F is the Faraday constant, E-Erev is the overpotential, R is the gas constant, and T is the temperature. The rate constant, ko , was obtained from the exchange current density (Eq. 5).
Where n is the number of electrons transferred, F, the Faraday constant, A, electrode area, Do, the diffusion coefficient, v, the kinematic viscosity of the solution and C*, the bulk concentration of the reactants. For n = 2, an active electrode area of 0.1925 cm^2, and a kinematic viscosity of the electrolyte of 0.01 cm^2 s^-1, we were able to evalulate the diffusion coefficient from the slope of the straight line plots.
To determine the kinetic parameters for the charge-transfer process, namely the rate constant and the apparent transfer coeffcient, the logarithm of the kinetic current (after correction for mass-transport losses) was plotted against the observed overpotentials greater than 100 mV, where the Tafel equation derived from the Butler-Volmer Equation is applicable : […]
Where I is the current, Ilim is the limiting current, Iex is the exchange current density, Co and CR are the concentration of the oxidized and reduced species at the surface of the electrode, Co* and CR* are the bulk concentrations of the oxidized and reduced species, α is the transfer coefficient, n is the number of electrons transferred, F is the Faraday constant, E-Erev is the overpotential, R is the gas constant, and T is the temperature. The rate constant, ko , was obtained from the exchange current density using the relationship

The nature of data set [4]: Cyclic voltammetry in 1 M potassium hydroxide. In kind it is physicochemical.
Data set [5] can be described thus: Charge/discharge cycling of full ORBAT flow cells. Conditions: 25 cm^2 flow cell, 0.2 M solutions, 1 M sulfuric acid, at least 12 cycles. An excerpt:
A flow cell was constructed using fuel cell hardware that has graphite end plates (Electrochem Inc.) and an electrode active area of 25 cm^2. The reactant was circulated using peristaltic pumps (Masterflex) at a flow rate of approximately 0.5-1.0 liter min^-1. Membrane electrode assemblies (MEA) needed for the cell were fabricated in house using procedures similar to those previously reported for direct methanol fuel cells. (G. K. S. Prakash, M. C. Smart, Q. J. Wang, A. Atti, V. Pleynet, B. Yang, K. McGrath, G. A. Olah, S. R. Narayanan, W. Chun, T. Valdez, S. Surampudi, J. Fluorine Chemistry, 125, 1217 (2004); the entire disclosure of which is hereby incorporated by reference). Specifically, two sheets of carbon paper (Toray 030- non-teflonized) were coated with an ink containing 0.1 g of Vulcan XC-72 carbon black and 0.3 g of NAFION®. The coated electrodes were hot pressed with a NAFION® 117 membrane to form a MEA. All full cell experiments were carried out at 23° C. Two glass containers served as reservoirs for the solutions of the redox couples. An argon flow was maintained above these solutions to avoid reaction of the redox couples with oxygen. The current-voltage characteristics of the cells were measured at various states of charge. Charge/discharge studies were carried out under constant current conditions. […]

Data set [6] in a line: Solubility.

Turning to `O=C1C=CC=CC1=O` [1,2-benzoquinone (ortho), 1,2-benzoquinone], the “electrode potential higher relative to 1,4-benzoquinone (para-quinone)” value in data set [1] is “approximately 85 mV”. In addition, the “Electrode Potential vs. NHE, V” value in data set [2] is 0.786 V.
In the case of `O=C1c2ccc(S(=O)(=O)O)cc2C(=O)c2ccc(S(=O)(=O)O)cc21` [Anthraquinone 2,6-disulfonic acid, anthraquinone-2,6-disulfonic acid], in data set [3] (1 M sulfuric acid), the “Standard Reduction Potentials: E°(formal) Measured” value is on record as 0.19. Moreover, the “kinetic reversibility from cyclic voltammograms” value in data set [3] (1 M sulfuric acid, glassy carbon) is on record as “less kinetically reversible than AQS”. For the same molecule, the “Diffusion Coefficient, (cm^2 s^-1)” value in data set [3] (Table 5, 1 M sulfuric acid, Levich plot) was found to be 3.40E-6 cm^2 s^-1. Besides, the “E½ vs. MSE, Volt” value is recorded as -0.60 Volt in data set [3] (Table 5, MSE E°=+0.65 V, 1 M sulfuric acid) and -0.58 Volt in data set [3] (Table 7, 1 M sulfuric acid). Moreover, in data set [3] (Table 5, Tafel analysis), the “Transfer Coefficient, an” value is listed as 0.426. Also, the “Exchange Current Density, (A cm^-2)” value in data set [3] (Table 5, glassy carbon RDE, 1 M sulfuric acid) is 2.97E-6 A cm^-2. Moreover, the “Rate Constant, k°” value in data set [3] (Table 5, obtained from exchange current density) was 0.000152 cm/s. The “Diffusion Coefficient (cm2/sec)” value in data set [3] (Table 7) is 4.04E-6 cm2/sec. Also, the “Exchange Current density (A/cm^2)” value in data set [3] (Table 7) is reported as 1.81E-6 A/cm^2. In addition, the “Standard Reduction Potentials: Experimental (E½ values) vs. NHE” value in data set [3] (vs. NHE, 1 M sulfuric acid) is listed as 0.05. The “reversible peak potential vs. MMO” value in data set [4] is reported as “about -0.35 V”. Also, the “charge-discharge cycling stability (capacity change)” value in data set [5] was “charge-discharge cycling stability similar to AQS”. The solubility in data set [6] (Solubility, Table 5) is 500 mM (≈ 184 mg/mL); in data set [6] (water, aqueous solubility limit, aqueous) it was about 500 mM (≈ 184 mg/mL).
